# Read-outs that look alike come from different tables or passages of the source.
# What was measured:
# [1] = Stability of selected inhibitors toward glutathione (Ellmans reagent); format: physicochemical
# Experimental: The inhibitors (5 mM) were incubated with glutathione (GSH) (0.3 mM) in phosphate buffer (50 mM) at pH=6.2 containing 15% DMF at 20° C. Periodically, 50 μL samples were added to 1 mL of buffer and treated with 10 μL of 30 mM Ellmans reagent and the absorbance measured at 412 nm.
# [2] = system: human malarial parasite Plasmodium falciparum; experiment: In vitro protease activity of malarial parasite, substrate Z-Phe-Arg-AMC; format: biochemical; settings: read-out: P. falciparum IC50 (human)
# Source text: (§1) The following table summarizes the comparative IC50 values for selected cysteine protease inhibitors against the human malarial parasite Plasmodium falciparum and the mouse malarial parasite Plasmodium vinckei. The substrate used to measure in vitro protease activity was Z-Phe-Arg-AMC.
# [3] = system: mouse malarial parasite Plasmodium vinckei; experiment: as above; format: biochemical; settings: read-out: P. vinckei IC50 (murine)
# Source text: as §1
# [4] = molecular target: T1, Cathepsin L from rat liver (Rattus norvegicus, UniProt P07154); experiment: Inhibition of cathepsin L, Z-Phe-Arg-AMC fluorescence progress curves; format: biochemical; settings: for Ki: corrected for substrate; for k/KI (kirr/KI): values without asterisk
# T1 construct: Cathepsin L from rat liver; from tissue; host or cells: rat liver
# Procedure, shortened: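 Progress curves of AMC release (380/460 nm) over at least 3 inactivation half-times were fitted to kobs, reported as kobs/[I] or, via 1/[I] vs 1/kobs, kirr, KI (substrate-corrected) and kirr/KI.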
# [5] = molecular target: T2, Cathepsin B from human placenta (Homo sapiens, UniProt P07858); experiment: Inhibition of cathepsin B, Z-Arg-Arg-AMC fluorescence progress curves; format: biochemical; settings: for Ki: corrected for substrate; for k/KI (kirr/KI): values without asterisk, 25° C., pH 6.2
# T2 construct: Cathepsin B from human placenta, obtained from Sigma; purchased Sigma; host or cells: human placenta (tissue)
# Procedure, shortened: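 Human placental enzyme (~10 nM) in 50 mM phosphate pH 6.2 with 2.5 mM DTT and 2.5 mM EDTA, 50 μM Z-Arg-Arg-AMC, inhibitors 30-0.001 μM, 25° C. AMC fluorescence (ex 380/em 460 nm) progress curves fitted for kobs; kobs/[I] reported, with kirr, KI and kirr/KI substrate-corrected for selected compounds.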
# [6] = molecular target: T3, Cloned cathepsin S (Homo sapiens, UniProt P25774); experiment: Inhibition of cathepsin S, Z-Val-Val-Arg-AMC fluorescence progress curves; format: biochemical; settings: for Ki: corrected for substrate; for k/KI (kirr/KI): values without asterisk
# T3 construct: made in house
# Procedure, shortened: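 Fluorescence (380 nm excitation, 460 nm emission) was followed after adding sub-nM enzyme to pH 6.5 phosphate buffer with DTT, EDTA, Triton, 10 μM Z-VVR-AMC and 30-0.001 μM inhibitor at 25 °C. Fitted kobs values gave apparent kobs/[I]; for some, double-reciprocal plots gave kirr, KI and kirr/KI, KI corrected by 1+[S]/Km.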
# [7] = molecular target: cruzain, from T. cruzi (Trypanosoma cruzi, UniProt P25779); experiment: Inhibition of cruzain, as for cathepsin L; format: biochemical; settings: for k/KI (kirr/KI): values without asterisk
# Procedure, shortened: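 Run as for cathepsin L with 1 nM cruzain in 50 mM phosphate pH […], 2.5 mM DTT, 2.5 mM EDTA, 5 μM Z-Phe-Arg-AMC, at 25 °C, inhibitors 30-0.001 μM; fluorescence (ex 380/em 460 nm) followed continuously. kobs fitted from progress curves and kobs/[I] reported; selected compounds gave kirr, KI, kirr/KI, with KI corrected by (1+[S]/Km).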
# [8] = system: Leishmania donovani amastigote infected mouse peritoneal macrophages; experiment: In vitro antiprotozoal activity, Leishmania donovani; format: cell-based; parameters: key to percentage inhibition, L. donovani: the term "T" indicates the molecule to have displayed cytotoxicity
# Experimental: (§2) In this table, the in vitro antiprotozoal activities of the indicated compounds were measured as percentage inhibition of Leishmania donovani amastigote infecteda mouse peritoneal macrophages, Trypanosoma cruzi amastigote infected macrophages, and Trypanosoma brucei extracellular bloodstream forms.
# [9] = system: Trypanosoma brucei extracellular bloodstream forms; experiment: In vitro antiprotozoal activity, Trypanosoma brucei; format: cell-based
# Experimental: as §2
# [10] = system: calpain; experiment: Inhibition (inactivation) of calpain, Suc-Leu-Tyr-AMC; format: biochemical; settings: pH 7.5, 5 mM CaCl2, 25° C.; for kobs /[I]*: values marked * (or %)
# Experimental: The inhibitors were tested against calpain at 1 or 2% as for the other enzymes. The reaction conditions were 50 mM Tris, pH 7.5, 5 mM CaCl2, 2.5 mM DTT, assayed at 25° C. The substrate was 100 μM Suc-Leu-Tyr-AMC.
# [11] = system: Trypanosoma cruzi amastigote infected macrophages; experiment: In vitro antiprotozoal activity, Trypanosoma cruzi; format: cell-based
# Experimental: as §2
# [12] = system: T. cruzi; experiment: T. cruzi infected irradiated J774 cells; format: cell-based; parameters: dose or concentration left out as unconfirmed; settings: thereafter without inhibitor; compounds listed in decreasing order of effectiveness
# Experimental: Irradiated J774 cells were infected with T. cruzi and simultaneously treated with […] of peptidyl vinyl derivatives for 5 days; thereafter without inhibitor. The following compounds were effective in decreasing order: Mu-Phe-ArgVSPh, Boc-Tyr(I2)-HphVSPh, Mu-Phe-VaIVSPh, Boc-Tic-HphVSPh, Mu-Phe-Ser(OBzl)VSPh, Mu-Leu-HphVSPh, Mu-Tyr(I2)-HphVSPh, Mu-Phe-LysVSPh, Mu-Tic-HphVSPh.
# T1 sequence (P07154 114-288 limits assumed): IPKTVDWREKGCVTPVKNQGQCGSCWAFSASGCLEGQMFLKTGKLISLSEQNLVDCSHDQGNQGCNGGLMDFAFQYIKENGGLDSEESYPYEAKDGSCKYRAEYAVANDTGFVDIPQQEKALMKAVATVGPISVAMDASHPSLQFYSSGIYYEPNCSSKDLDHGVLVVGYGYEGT
# T1 sequence (P07154 291-334 limits assumed): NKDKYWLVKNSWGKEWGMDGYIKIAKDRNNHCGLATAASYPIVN
# T3 sequence (P25774 115-331): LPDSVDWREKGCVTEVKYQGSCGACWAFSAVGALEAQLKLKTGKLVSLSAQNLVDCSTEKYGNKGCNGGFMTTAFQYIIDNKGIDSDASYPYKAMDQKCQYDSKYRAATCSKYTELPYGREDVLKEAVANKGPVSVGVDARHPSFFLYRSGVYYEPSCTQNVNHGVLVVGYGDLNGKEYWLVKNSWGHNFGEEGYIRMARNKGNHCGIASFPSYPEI
# cruzain, from T. cruzi, sequence (P25779 123-337 limits assumed): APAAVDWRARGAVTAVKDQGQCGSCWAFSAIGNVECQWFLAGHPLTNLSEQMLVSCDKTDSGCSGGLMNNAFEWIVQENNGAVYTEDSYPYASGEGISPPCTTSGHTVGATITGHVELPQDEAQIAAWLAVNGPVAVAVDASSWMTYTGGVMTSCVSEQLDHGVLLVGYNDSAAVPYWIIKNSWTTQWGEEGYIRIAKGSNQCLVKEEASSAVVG
Compound,IC50 ([3]; cells printed in nM) [nM],kirr [4] [s⁻¹],Ki [4] [nM],"k/KI (kirr/KI) ([4]; 25° C., pH 6.2)",kirr [5] [s⁻¹],Ki [5] [nM],k/KI (kirr/KI) [5],kirr [6] [s⁻¹],Ki [6] [nM],"k/KI (kirr/KI) ([6]; 25° C., pH 6.5)",k/KI (kirr/KI) [7],"percentage inhibition, L. donovani ([8]; 3 uM) [%]","percentage inhibition, L. donovani ([8]; 10 uM) [%]","percentage inhibition, L. donovani ([8]; 30 uM) [%]","percentage inhibition, L. donovani ([8]; 90 uM)","percentage inhibition, T. brucei ([9]; 3 uM) [%]","percentage inhibition, T. brucei ([9]; 10 uM) [%]","percentage inhibition, T. brucei ([9]; 30 uM) [%]","percentage inhibition, T. brucei ([9]; 90 uM) [%]",effectiveness against T. cruzi in J774 cells [12],also measured
"Br.CCOC(=O)/C=C/[C@H](CCCNC(=N)N)NC(=O)[C@H](Cc1ccccc1)NC(=O)N1CCOCC1 [Mu-Phe-ArgVEOEt.HBr, ethyl (S)-(E)-7-guanidino-4-(4-morpholinecarbonylphenylalanyl)amino-2-heptenoatehydrobromide]",200,0.18,3100,"56,900 M^-1 sec^-1",0.16,19000,8200 M⁻¹ s⁻¹,,,,,,,,,,,,,,"second order rate constant for the loss of GSH ([1]; inhibitor 5 mM, GSH 0.3 mM, pH=6.2, 20° C.): 0.0053 M⁻¹ s⁻¹; times more reactive with GSH ([1]; relative to Mu-Phe-LysVSPh): 10 times; IC50 ([2]; cells printed in nM): 300 nM"
"Br.N=C(N)NCCC[C@@H](/C=C/S(=O)(=O)c1ccccc1)NC(=O)[C@H](Cc1ccccc1)NC(=O)N1CCOCC1 [Mu-Phe-ArgVSPh.HBr, (S)-(E)-3-(4-morpholinecarbonylphenylalanyl)amino-6-guanidino-1-phenylsulfonyl-1-hexene hydrobromide]",50,0.67,1900,"349,000 M^-1 sec^-1",0.15,12000,"12,300 M^-1 sec^-1",0.031,16,"2,000,000 M^-1 sec^-1","91,400 M^-1 sec^-1",0,0,0,1.3%,0,0,0,0,effective,"kobs /[I]* [10]: < 50 M⁻¹ s⁻¹; IC50 ([2]; cells printed in nM): 50 nM; percentage inhibition, T. cruzi ([11]; 3 uM): 0%; percentage inhibition, T. cruzi ([11]; 10 uM): 0%; percentage inhibition, T. cruzi ([11]; 30 uM): 0%; percentage inhibition, T. cruzi ([11]; 90 uM): 5.8%"
"CCOP(=O)(C/C=C/[C@H](CCc1ccccc1)NC(=O)[C@H](Cc1ccccc1)NC(=O)N1CCOCC1)OCC [Mu-Phe-HphVPEt, diethyl (S)-(E)-4-(4-morpholinecarbonylphenylalanyl)amino-6-phenyl-2-hexenephosphonate]",,0.16,39000,4100 M⁻¹ s⁻¹,,,,0.40,36000,"11,200 M^-1 sec^-1",,,,,,,,,,,"reaction with GSH ([1]; after 24 hours, inhibitor 5 mM, GSH 0.3 mM, pH=6.2, 15% DMF, 20° C.): no measurable reaction"
(S)-(E)-3-(4-morpholinecarbonylphenylalanyl)amino-4-benzyloxy-1-phenylsulfonyl-1-butene [Mu-Phe-Ser(OBzl)VSPh],500,0.20,4600,"42,700 M^-1 sec^-1",0.14,47000,2900 M⁻¹ s⁻¹,0.092,74,"1,240,000 M^-1 sec^-1","12,800 M^-1 sec^-1",100,100,100,T,11.5,93.3,1.00,100,effective,"percentage inhibition, T. brucei ([9]; 1 uM): 5.2%; kobs /[I]* [10]: < 50 M⁻¹ s⁻¹; IC50 ([2]; cells printed in μM): 1000 nM; percentage inhibition, T. cruzi ([11]; 3 uM): 5.2%; percentage inhibition, T. cruzi ([11]; 10 uM): 15.7%; percentage inhibition, T. cruzi ([11]; 30 uM): 15.1%; percentage inhibition, T. cruzi ([11]; 90 uM): 50.7%"
(S)-(E)-3-(4-morpholinecarbonylphenylalanyl)amino-4-methyl-1-phenylsulfonyl-1-pentene [Mu-Phe-ValVSPh],,0.19,2600,"74,000 M^-1 sec^-1",,,,0.039,130,"290,000 M^-1 sec^-1",,100,100,100,T,13.5,35.4,72.7,100,effective,"kobs /[I]* (approximate second-order inactivation constant) ([7]; values marked *): 28,000 M^-1 sec^-1; ED50, T. brucei [9]: 13850 nM; percentage inhibition, T. brucei ([9]; 1 uM): 11.9%; kobs /[I]* [10]: 180 M⁻¹ s⁻¹; IC50 ([2]; cells printed in μM): 1000 nM; IC50 ([3]; cells printed in μM): 1000 nM; ED50, T. cruzi [11]: 61880 nM; percentage inhibition, T. cruzi ([11]; 3 uM): 5.5%; percentage inhibition, T. cruzi ([11]; 10 uM): 6.2%; percentage inhibition, T. cruzi ([11]; 30 uM): 18.9%; percentage inhibition, T. cruzi ([11]; 90 uM): 74.2%"
"(S,S)-(E)-3-[4-morpholinecarbonyl-(1,2,3,4-tetrahydro-3-isoquinoline-carbonyl)]amino-5-phenyl-1-phenylsulfonyl-1-pentene [Mu-Tic-HphVSPh]",,,,,,,0 M⁻¹ s⁻¹,,,,0 M⁻¹ s⁻¹,,,,,,,,,effective,"kobs /[I]* (approximate second-order inactivation constant) ([6]; values marked *, 25° C., pH 6.5): 630,000 M^-1 sec^-1; k/KI (kirr/KI) ([10]; values without asterisk): 0 M⁻¹ s⁻¹; kobs /[I]* (approximate second-order inactivation constant) ([4]; values marked *, 25° C., pH 6.2): 12,600 M^-1 sec^-1"
